The source made the active and inactive calls. The rule behind the calls is not given here.

This note sets out measurements from ChEMBL document CHEMBL1147395, “Three New Toxic Pinolidoxins from Ascochyta pinodes” (J Nat Prod, 1993).

Series [1] deals with Artemia salina. The series is described as follows: Toxicity in Artemia salina at 5 ug/ml. The class given is organism-based. The settings on record: in vivo.
Series [2] deals with Geotrichum candidum. The series is described as follows: Antifungal activity against Geotrichum candidum up to 120 ug/ml. The class given is functional, organism-based.
The test system of series [3] is Pisum sativum. The series is described as follows: Phytotoxicity against pea leaves assessed as necrotic lesion at 15 ug/15 ul after 48 hrs by leaf puncture assay. The class given is functional, organism-based. Particulars: Lathyrus oleraceus.
In series [4] the test system is Fabaceae. The series is described as follows: Phytotoxicity against beans leaves assessed as necrotic lesion at 15 ug/15 ul after 48 hrs by leaf puncture assay. The class given is functional, organism-based.
Series [5] has as its system Artemia salina. The series is described as follows: Toxicity in Artemia salina at 50 ug/ml. The class given is organism-based. Particulars: in vivo.

For the molecule `C/C=C/C=C/C(=O)O[C@H]1CC/C=C/[C@H](O)[C@H](O)[C@@H](CCC)OC1=O` [PINOLIDOXIN], in series [1], the Activity result is recorded as “Non-toxic”. Further, the outcome in series [2] was inactive.
As for `C/C=C/C=C/C(=O)O[C@H]1CC/C=C/[C@@H](O)[C@H](O)[C@@H](CCC)OC1=O`, the Activity entry in series [3] was “Toxic”; in series [4] it was “Toxic”; in series [5] it was “Toxic”; in series [1], “Non-toxic”. Besides, the result in series [2] was inactive.
Turning to `C/C=C/C=C/C(=O)O[C@H]1CCCC[C@H](O)[C@H](O)[C@@H](CCC)OC1=O`, the Activity entry in series [3] is “Toxic”; in series [4], “Toxic”; in series [1], “Non-toxic”. In addition, the result in series [2] was inactive.
As to `C/C=C/C=C/C(=O)O[C@H]1CCC2OC2[C@H](O)[C@H](O)[C@@H](CCC)OC1=O` (some centres undefined), the Activity result in series [5] is given as “Toxic”; in series [1], “Non-toxic”. Besides, the result in series [2] was inactive.
